Data on 1 molecule can be found in paper PMC12365235, “Molecular mechanisms of thiazide-like diuretics-mediated inhibition of the human Na-Cl cotransporter” (Nature Communications, 2025).

“Also recorded” adds a separate entry of the source.

In one assay the target is T1, hNCC(H234N) (Homo sapiens, UniProt P55017, H234N).
T1 construct: expressed in transfected cells
T1 sequence (P55017 1-1021 H234N): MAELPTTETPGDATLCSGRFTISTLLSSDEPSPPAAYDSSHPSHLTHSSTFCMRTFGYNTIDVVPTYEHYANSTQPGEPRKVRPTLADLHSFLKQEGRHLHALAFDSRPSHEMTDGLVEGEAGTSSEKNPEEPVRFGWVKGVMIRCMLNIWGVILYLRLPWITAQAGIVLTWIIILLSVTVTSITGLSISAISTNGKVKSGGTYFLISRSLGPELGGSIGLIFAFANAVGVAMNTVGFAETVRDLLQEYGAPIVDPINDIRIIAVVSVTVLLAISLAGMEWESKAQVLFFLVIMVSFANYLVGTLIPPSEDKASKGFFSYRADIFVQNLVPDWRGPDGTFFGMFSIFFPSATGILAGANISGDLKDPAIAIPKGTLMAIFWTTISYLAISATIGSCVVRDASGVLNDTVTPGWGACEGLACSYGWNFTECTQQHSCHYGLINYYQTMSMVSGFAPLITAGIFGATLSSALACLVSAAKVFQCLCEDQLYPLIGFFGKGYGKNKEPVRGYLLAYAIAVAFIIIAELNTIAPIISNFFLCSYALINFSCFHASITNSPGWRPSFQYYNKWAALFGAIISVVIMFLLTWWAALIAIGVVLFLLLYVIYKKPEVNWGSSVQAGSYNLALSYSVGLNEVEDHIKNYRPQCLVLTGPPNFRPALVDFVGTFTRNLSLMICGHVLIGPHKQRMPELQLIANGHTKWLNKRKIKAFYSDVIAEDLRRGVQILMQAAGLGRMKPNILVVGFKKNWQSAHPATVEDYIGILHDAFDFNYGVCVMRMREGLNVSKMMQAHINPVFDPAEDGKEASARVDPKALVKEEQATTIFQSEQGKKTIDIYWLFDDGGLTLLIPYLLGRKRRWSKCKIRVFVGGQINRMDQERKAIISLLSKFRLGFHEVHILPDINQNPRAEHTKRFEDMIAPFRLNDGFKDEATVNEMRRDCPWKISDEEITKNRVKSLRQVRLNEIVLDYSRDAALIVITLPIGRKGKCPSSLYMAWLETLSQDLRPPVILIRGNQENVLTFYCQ
The experiment in a line: 125I- uptake assay, hNCC(H234N) variant. To be noted: 100 μM polythiazide. Type of assay: cell-based. On the procedure: (§1) HEK293S cell lines, cultured in 293 Freestyle medium (Life Technologies; plus 10% fetal bovine serum), stably expressing hNCC and its variants were generated following published protocols. Cells were transfected using Lipofectamine 3000 (Invitrogen) with a pSBbi-RP-based plasmid containing hNCC or its variants and the SB100X vector. Puromycin (2 μg/mL; Gemini Bio-Products) was used for selection of stable cell lines.
(§2) To prepare for the uptake experiment, cells were plated at 0.5 × 10^6 cells/well in 24-well plates one day in advance. To activate NCC, cells were treated with a chloride-free hypotonic solution composed of 67.5 mM sodium-, 2.5 mM potassium-, 0.25 mM magnesium-, and 0.25 mM calcium-gluconate, as well as 7.5 mM HEPES pH 7.4 (buffered using Tris) at 37 °C for 10 min[72]. After the activation step, the experiments were carried out at room temperature. Ten minutes before the start of ^125I^− uptake, 70 μM Bumetanide (Thermo Scientific Chemicals) and 100 μM 4,4′-diisothiocyanatostilbene-2,2′-disulfonic acid (DIDS; Sigma) were added to suppress background iodide uptake activity. Indicated thiazide diuretics were also added to the indicated concentrations 10 min before the start of ^125I^− uptake. […] Cells lysed using 1% sodium dodecyl sulfate (SDS) were analyzed by scintillation counting.

The next assay has as its system hNCC(V229M). The experiment in a line: 125I- uptake assay, hNCC(V229M) variant. To be noted: V229M polymorphism. In kind it is cell-based, human. On the procedure:
as §1
as §2, with “counting. […]” for “counting.”

Take `CN1C(CSCC(F)(F)F)Nc2cc(Cl)c(S(N)(=O)=O)cc2S1(=O)=O` (centres unmarked) [polythiazide]: the “inhibition of transport activity” value on hNCC(H234N) is “fully inhibited; also recorded: completely inhibited”. In the assay with hNCC(V229M), the “fold reduction of sensitivity relative to hNCC(WT)” value is given as ~ 5 fold.
